Patent US8415158B2, “Compositions and methods useful for culturing differentiable cells” (ViaCyte, Inc., priority 2006, dated 2013)

Assays:
ErbB2 = biological target: T1, ErbB2 (Homo sapiens, UniProt P04626); test: Western blotting of ErbB2 autophosphorylation in starved/heregulin pulsed hESCs; format: cell-based; settings: starved/heregulin pulsed hESCs growing in DC-HAIF
T1 construct: endogenous in cells; host or cells: human embryonic stem cells (hESCs) grown in DC-HAIF
Excerpt: (§1) Colony and cell-counting assays confirmed that LongR3-IGF1 and HRG played the major roles in self-renewal and proliferation in the context of one of the embodiments of the present invention (FIGS. 6D, 6E). Phosphorylation of IGF1R, IR, FGF2a, ErbB2, and ErbB3 was also observed in both steady-state DC-HAIF cultures, and in starved cultures that were pulsed with DC-HAIF (FIG. 6F).

BG02 hESCs = test: Proliferation of hESCs growing in conditioned medium with AG825; format: cell-based, human; settings: 50 μM (FIG. 6A)
Excerpt: as §1

R1 mouse ES cells = test: Proliferation of R1 mouse ES cells with ErbB tyrosine kinase inhibitors, alkaline phosphatase staining; format: cell-based
Method: AG1478 and AG879 were used to examine the role of HRG/ErbB signaling in mouse ES cells. R1 mouse ES cells were maintained in standard conditions in DMEM, 10% FBS, 10% KSR, 0.5 U/ml penicillin, 0.5 U/ml streptomycin, 1×NEAA, 1 mM sodium pyruvate, 1000 U/ml LIF (ESGRO), 0.1 mM 13-ME, and were passaged with 0.5% trypsin/EDTA. 2×10^5 cells/well were plated in 6 well trays on […]™ diluted at 1:1000. The day after plating, DMSO (carrier control), 1-50 μM AG1478, or 1-50 μM AG879 was added with fresh medium. The cells were cultured an additional 8 days, with daily media changes. The cultures were then fixed and stained for alkaline phosphatase activity.

BG01v cells = test: Proliferation of BG01v cells with ErbB tyrosine kinase inhibitors, alkaline phosphatase staining; format: cell-based; settings: 5 days
Method: To examine the effect of known inhibitors of ErbB tyrosine kinases in hESCs, BG01 v cells were plated in 6 well trays on […]™ diluted at 1:1000, in defined culture medium (DC) containing 100 ng/ml LongR3-IGF1, 8 ng/ml FGF2 and 1 ng/ml Activin A. On the next day, DMSO (carrier control), 50 nM-20 μM AG1478 (an ErbB1 inhibitor), or 100 nM-20 μM AG879 (an ErbB2 inhibitor) was added with fresh medium. The cells were cultured for an additional 5 days, with daily media changes. The cultures were then fixed and stained for alkaline phosphatase activity.

ES cells = test: Suspension cultures in various media, cell counting; format: cell-based; settings: added to HAIF, HAI and HI conditions
Method: To determine if suspensions of ES cells could be cultured in the absence of FGF2 and/or Activin A, ES cells were cultured in a variety of media, with and without these factors. […] In addition, the cells in each media were successfully passaged with no morphological signs of differentiation.

BG02 cells = test: Suspension culture of BG02 cells with and without apoptosis inhibitor, cell counting; format: cell-based, human
Method: Starting cultures of BG02 cells were maintained in DC-HAIF medium on dishes coated with 1:200 matrigel, as described herein and were split by passaging with ACCUTASE™. To initiate suspension culture, BG02 cells were disaggregated with ACCUTASE™ and placed in low attachment 6-well trays at a density of 1.6, 3, or 6×10^5 cells/ml (0.5, 1, or 2×10^6 cells in 3 ml volumes) in DC-HAIF medium. The trays were placed on a rotating platform at 80-100 rpm in a humidified incubator with 5% CO2. Under these conditions hESCs coalesced into small spheres of morphologically viable cells within 24 hours.
To attenuate the loss of cells after initial passaging in suspension, an inhibitor of apoptosis was added to the medium. Cells were passaged as in Example 12, except that Y-27632, an inhibitor of p160-Rho-associated coiled-coil kinase (ROCK), was added to the medium.
Suspension aggregates of BG02 cells were formed by seeding 2×10^6 single cells in 6-well dishes in 3 ml DC-HAIF medium, at 100 rpm on a rotating platform in an incubator (Table 2, Experiment A). 10 μM Y27632 ROCK inhibitor was added to test wells for the course of the experiment and the cultures observed daily and counted after 24 hours (day 1) and after 4 or 5 days. […] Cell counting confirmed that more viable cells were present in the presence of inhibitor (Table 2, Experiment A). This difference in cell number persisted throughout the course of the culture period, with more cells also observed on day 4, compared to cultures without inhibitor. As with previous suspension culture experiments, cells exposed to Y27632 could also be serially passaged, and maintained in an undifferentiated state (not shown).
As previous experiments had shown that growth rates of cells in suspension and adherent culture were similar after the initial 24 hours, an experiment was performed where Y27632 was removed after this initial period (Table 2, Experiment B). […] 1.4×10^7 (+Y27632) and 1.8×10^7 (+/−Y27632) viable cells were generated when inhibitor was present compared to 3.9×10^6 cells in untreated cultures. This analysis confirmed that Y27632 had the largest impact during the first 24 hours of suspension hESC culture.
Because of the enhanced survival and aggregation observed in the presence of Y27632, an experiment was performed to examine if it was possible to reduce the number of cells used to seed suspension cultures (Table 2, Experiment C). […] To determine if addition of a ROCK inhibitor would allow cell seeding at lower densities, a range of cell concentrations (from about 2×10^6 total cells down to about 1×10^5 total cells was used to seed suspension cultures in 6-well trays cells in 3 ml DC-HAIF. 10 μM Y27632 was added to all conditions, and the cell number and viability assessed on day 5. Successful aggregation and expansion was observed even at low seeding densities. An approxiate 13 fold expansion of viable cells was observed even cultures that were only seeded with 1×10^5 cells. Inhibition of ROCK with Y27632 therefore facilitated initial survival of hESCs at much lower densities in this suspension system.

hESCs = test: Titration of insulin and IGF1 at physiological levels, hESC proliferation; format: cell-based, human; settings: titrated from about 0.2 to about 200 ng/ml, cells counted after 5 days
Method: Essentially all of the reported culture conditions for hESCs to date include supraphysiological levels of insulin, which can stimulate both IR and IGF1R. To distinguish the activities that insulin and insulin-substitutes exert, compared to IGF1, hESCs are cultured in defined media conditions in physiological levels of these growth factors. The concentrations of insulin and IGF1 are titrated from about 0.2 to about 200 ng/ml and cell proliferation is monitored by counting cells after 5 days. Cultures that expand successfully are serially passaged 5 times.

[1] = Expt. A, seeding 2 × 10^6, p0, day 1
[2] = Expt. A, seeding 2 × 10^6, p0, day 4
[3] = Expt. B, seeding 2 × 10^6, p0, day 1
[4] = Expt. B, seeding 2 × 10^6, p0, day 5
[5] = Expt. B, seeding 2 × 10^6, p0, day 5, Y27632 removed after 24 hours
[6] = Expt. C, seeding 1 × 10^6, p0, day 1
[7] = Expt. C, seeding 1 × 10^6, p0, day 5
[8] = Expt. C, seeding 2 × 10^6, p0, day 1
[9] = Expt. C, seeding 2 × 10^6, p0, day 5
[10] = Expt. C, seeding 2.5 × 10^5, p0, day 1
[11] = Expt. C, seeding 2.5 × 10^5, p0, day 5
[12] = Expt. C, seeding 5 × 10^5, p0, day 1
[13] = Expt. C, seeding 5 × 10^5, p0, day 5
[14] = Expt. C, seeding 10^5, p0, day 1
[15] = Expt. C, seeding 10^5, p0, day 5

T1 sequence (P04626 23-1255): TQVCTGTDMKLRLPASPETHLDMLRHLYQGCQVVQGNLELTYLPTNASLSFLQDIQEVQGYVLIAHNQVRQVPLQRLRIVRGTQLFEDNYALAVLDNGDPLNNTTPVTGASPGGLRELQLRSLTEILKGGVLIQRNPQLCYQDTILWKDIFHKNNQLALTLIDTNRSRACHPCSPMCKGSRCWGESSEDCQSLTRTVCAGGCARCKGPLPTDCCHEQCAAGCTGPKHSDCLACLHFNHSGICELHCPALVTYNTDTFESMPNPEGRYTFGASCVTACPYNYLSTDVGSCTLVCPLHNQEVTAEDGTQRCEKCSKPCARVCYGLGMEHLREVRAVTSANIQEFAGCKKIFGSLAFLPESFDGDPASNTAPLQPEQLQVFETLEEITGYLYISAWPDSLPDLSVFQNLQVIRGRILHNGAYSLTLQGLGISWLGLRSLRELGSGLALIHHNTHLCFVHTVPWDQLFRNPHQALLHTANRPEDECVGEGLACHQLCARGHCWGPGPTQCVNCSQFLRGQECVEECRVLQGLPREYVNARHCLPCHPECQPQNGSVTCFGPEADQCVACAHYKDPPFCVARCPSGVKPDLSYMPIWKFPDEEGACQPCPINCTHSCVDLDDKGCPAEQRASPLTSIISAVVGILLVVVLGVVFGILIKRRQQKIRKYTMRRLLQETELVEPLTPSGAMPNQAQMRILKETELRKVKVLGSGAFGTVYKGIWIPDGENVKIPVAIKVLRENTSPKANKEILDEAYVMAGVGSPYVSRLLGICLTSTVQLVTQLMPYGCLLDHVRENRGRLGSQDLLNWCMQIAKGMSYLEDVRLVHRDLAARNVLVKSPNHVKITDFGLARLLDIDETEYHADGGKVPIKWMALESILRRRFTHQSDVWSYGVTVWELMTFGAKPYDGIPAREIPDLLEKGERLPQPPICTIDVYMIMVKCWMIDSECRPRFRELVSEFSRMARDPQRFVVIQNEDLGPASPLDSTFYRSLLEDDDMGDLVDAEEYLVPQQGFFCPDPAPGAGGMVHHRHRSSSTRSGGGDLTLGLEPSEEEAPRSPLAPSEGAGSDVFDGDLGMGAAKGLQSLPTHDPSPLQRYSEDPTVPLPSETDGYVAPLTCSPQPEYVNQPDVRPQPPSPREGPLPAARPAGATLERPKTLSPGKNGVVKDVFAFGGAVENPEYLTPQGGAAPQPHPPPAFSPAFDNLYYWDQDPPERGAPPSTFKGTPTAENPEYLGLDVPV

`COc1cc(/C=C(\C#N)C(N)=O)cc(CSc2nc3ccccc3s2)c1O` [AG825] was tested, and the “autophosphorylation of ErbB2 at tyrosine-1248” value (ErbB2) was “inhibited autophosphorylation” and the “effect on proliferation of hESCs growing in conditioned medium (CM)” value (BG02 hESCs) was “significantly inhibited proliferation”.

In the case of `CC(C)(C)c1cc(/C=C(\C#N)C(N)=S)cc(C(C)(C)C)c1O` [AG879], the effect on proliferation (R1 mouse ES cells; 20 μM, 8 days) is reported as “may have slowed proliferation”, the “effect on cell growth” value (R1 mouse ES cells; 50 μM, 8 days) is reported as “substantially inhibited cell growth” and the “concentration required to inhibit proliferation, mESCs relative to BG01v cells” value (R1 mouse ES cells; higher for mESCs than for BG01v cells in defined conditions) is reported as roughly 10 ×. For the same compound, the “effect on cell growth” value (BG01v cells; 5 μM) was “substantially inhibited cell growth” and the cell death (BG01v cells; 20 μM) was “caused cell death”.

For `COc1cc2ncnc(Nc3cccc(Cl)c3)c2cc1OC` [AG1478], the “effect on cell proliferation” value (R1 mouse ES cells; 1-50 μM, 8 days, 10% FBS, 10% KSR, LIF) was “no apparent affect on cell proliferation” and the “effect on cell proliferation” value (BG01v cells; 50 nM-20 μM, DC medium with LongR3-IGF1, FGF2, Activin A) was “neither DMSO nor AG1478 (50 nM-20 μM) had an apparent affect on cell proliferation”.

With `C[C@@H](N)[C@H]1CC[C@H](C(=O)Nc2ccncc2)CC1` [Y27632] the “yield of cells generated by day 5” value (ES cells) was “increased the yield of cells”, the “size of aggregates in initial aggregation phase of suspension culture” value (BG02 cells; 10 μM, compared to medium without inhibitor) was “much larger aggregates were formed” and the “initial survival and aggregation of hESCs after initial passage” value (BG02 cells; 10 μM, first 24 hours) was “enhanced initial survival and aggregation of hESCs”. The “cells observed when the aggregates were split again” value (BG02 cells; Expt. A, 10 μM, versus without inhibitor) was “almost twice as many cells”, the “Cell counts: total” value (BG02 cells; Expt. A, p1, day 4) was 4.6 × 10^6 cells and the “Cell counts: viable” value (BG02 cells; Expt. A, p1, day 4) was 4.2 × 10^6 cells. For the same compound, the “viable cells, %” value (BG02 cells; Expt. A, p1, day 4) was 91%, the “Cell counts: total” value (BG02 cells; [1]) was 1.6 × 10^6 cells and the “Cell counts: viable” value (BG02 cells; [1]) was 1.2 × 10^6 cells. For the same compound, the “viable cells, %” value (BG02 cells; [1]) was 74%, the “Cell counts: total” value (BG02 cells; [2]) was 7.8 × 10^6 cells and the “Cell counts: viable” value (BG02 cells; [2]) was 7.1 × 10^6 cells. For the same compound, the “viable cells, %” value (BG02 cells; [2]) was 91%, the “Cell counts: total” value (BG02 cells; [3]) was 1.9 × 10^6 cells and the “Cell counts: viable” value (BG02 cells; [3]) was 1.4 × 10^6 cells. The “viable cells, %” value (BG02 cells; [3]) was 73%, the “Cell counts: total” value (BG02 cells; [4]) was 1.5 × 10^7 cells and the “Cell counts: viable” value (BG02 cells; [4]) was 1.4×10^7 cells. The “viable cells, %” value (BG02 cells; [4]) was 92%, the “Cell counts: total” value (BG02 cells; [5]) was 1.9 × 10^7 cells and the “Cell counts: viable” value (BG02 cells; [5]) was 1.8×10^7 cells. The “viable cells, %” value (BG02 cells; [5]) was 96%, the “Cell counts: total” value (BG02 cells; [6]) was 8.7 × 10^5 cells and the “Cell counts: viable” value (BG02 cells; [6]) was 6.6 × 10^5 cells. The “viable cells, %” value (BG02 cells; [6]) was 76%, the “Cell counts: total” value (BG02 cells; [7]) was 8.6 × 10^6 cells and the “Cell counts: viable” value (BG02 cells; [7]) was 7.8 × 10^6 cells. For the same compound, the “viable cells, %” value (BG02 cells; [7]) was 91%, the “Cell counts: total” value (BG02 cells; [8]) was 1.9 × 10^6 cells and the “Cell counts: viable” value (BG02 cells; [8]) was 1.6 × 10^6 cells. For the same compound, the “viable cells, %” value (BG02 cells; [8]) was 84%, the “Cell counts: total” value (BG02 cells; [9]) was 1.4 × 10^7 cells and the “Cell counts: viable” value (BG02 cells; [9]) was 1.2 × 10^7 cells. For the same compound, the “viable cells, %” value (BG02 cells; [9]) was 90%, the “Cell counts: total” value (BG02 cells; [10]) was 2.6 × 10^5 cells and the “Cell counts: viable” value (BG02 cells; [10]) was 2.3 × 10^5 cells. For the same compound, the “viable cells, %” value (BG02 cells; [10]) was 91%, the “Cell counts: total” value (BG02 cells; [11]) was 2.7 × 10^6 cells and the “Cell counts: viable” value (BG02 cells; [11]) was 2.5 × 10^6 cells. The “viable cells, %” value (BG02 cells; [11]) was 91%, the “Cell counts: total” value (BG02 cells; [12]) was 4.6 × 10^5 cells and the “Cell counts: viable” value (BG02 cells; [12]) was 3.5 × 10^5 cells. The “viable cells, %” value (BG02 cells; [12]) was 75%, the “Cell counts: total” value (BG02 cells; [13]) was 5.7 × 10^6 cells and the “Cell counts: viable” value (BG02 cells; [13]) was 5.3 × 10^6 cells. The “viable cells, %” value (BG02 cells; [13]) was 93%, the “Cell counts: total” value (BG02 cells; [14]) was 6.8 × 10^4 cells and the “Cell counts: viable” value (BG02 cells; [14]) was 5.4 × 10^4 cells. The “viable cells, %” value (BG02 cells; [14]) was 79%, the “Cell counts: total” value (BG02 cells; [15]) was 1.4 × 10^6 cells and the “Cell counts: viable” value (BG02 cells; [15]) was 1.3 × 10^6 cells. The “viable cells, %” value (BG02 cells; [15]) was 92% and the “expansion of viable cells” value (BG02 cells; seeded with 1×10^5 cells, 10 μM Y27632, day 5) was roughly 13 fold.

With IGF1: insulin-like growth factor the “expansion of hESC cultures at physiological levels” value (hESCs) was “support the expansion of hESC cultures”.

With “insulin: protein that binds to the insulin receptor” the “expansion of hESC cultures at physiological levels” value (hESCs) was “do not”.
